Measurements published in patent US11168073B2, “3,3-difluoroallylamines or salts thereof and pharmaceutical compositions comprising the same” (YUHAN CORPORATION, priority 2018, dated 2021).
Counter-ions that a name gives are not always drawn. Like-named read-outs stand apart in the source and are kept apart here.

What was measured:
Type in all cases: biochemical
recombinant human VAP-1 = biological target: T1, recombinant human VAP-1 (Homo sapiens, UniProt Q16853); experiment: Activity evaluation on recombinant human VAP-1 (Amplex Red/HRP-coupled hydrogen peroxide assay, benzylamine substrate); settings: read-out: Inhibitory Activity (IC50, nM) human VAP-1
T1 construct: purchased R&D systems
T1 sequence (Q16853 1-763): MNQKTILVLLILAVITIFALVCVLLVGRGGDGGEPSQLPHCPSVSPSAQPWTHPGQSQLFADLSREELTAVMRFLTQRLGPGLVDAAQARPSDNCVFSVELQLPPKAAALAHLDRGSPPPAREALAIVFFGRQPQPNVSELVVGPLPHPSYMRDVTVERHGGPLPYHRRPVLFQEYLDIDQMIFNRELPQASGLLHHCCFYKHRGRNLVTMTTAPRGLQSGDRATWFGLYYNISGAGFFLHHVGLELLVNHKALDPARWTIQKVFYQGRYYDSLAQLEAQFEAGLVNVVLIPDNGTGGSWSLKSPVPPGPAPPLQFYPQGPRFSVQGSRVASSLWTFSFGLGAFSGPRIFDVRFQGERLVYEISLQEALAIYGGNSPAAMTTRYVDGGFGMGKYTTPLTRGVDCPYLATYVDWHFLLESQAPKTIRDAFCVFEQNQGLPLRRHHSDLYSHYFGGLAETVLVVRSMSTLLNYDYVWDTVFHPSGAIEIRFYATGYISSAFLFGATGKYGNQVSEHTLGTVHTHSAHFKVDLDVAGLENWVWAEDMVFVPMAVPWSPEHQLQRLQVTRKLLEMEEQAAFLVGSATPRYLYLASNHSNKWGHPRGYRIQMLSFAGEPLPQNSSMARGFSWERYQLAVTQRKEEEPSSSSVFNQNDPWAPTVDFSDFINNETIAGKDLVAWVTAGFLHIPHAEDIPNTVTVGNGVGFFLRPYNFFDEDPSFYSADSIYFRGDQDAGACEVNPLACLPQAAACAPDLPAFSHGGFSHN
Method in brief: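 Recombinant human VAP-1 in 50 mM sodium phosphate pH 7.4 preincubated 30 min at 37 °C with compound (8-point 1:3 series, <1% DMSO), then 1 mM benzylamine, 200 uM Amplex Red, 1 U/mL HRP added. H2O2-derived resorufin fluorescence (ex 544/em 590) followed 1–2 h; IC50 from four-parameter fit of rate inhibition.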

[1] = biological target: T2, recombinant human MAO-A (monoamine oxidase-A) (Homo sapiens, UniProt P21397); experiment: Activity evaluation on recombinant human MAO-A (Amplex Red/HRP-coupled assay, 0.5 mM tyramine substrate); settings: read-out: Inhibitory Activity (IC50, nM) MAO-A
T2 construct: purchased Sigma-Aldrich
T2 sequence (P21397 1-527): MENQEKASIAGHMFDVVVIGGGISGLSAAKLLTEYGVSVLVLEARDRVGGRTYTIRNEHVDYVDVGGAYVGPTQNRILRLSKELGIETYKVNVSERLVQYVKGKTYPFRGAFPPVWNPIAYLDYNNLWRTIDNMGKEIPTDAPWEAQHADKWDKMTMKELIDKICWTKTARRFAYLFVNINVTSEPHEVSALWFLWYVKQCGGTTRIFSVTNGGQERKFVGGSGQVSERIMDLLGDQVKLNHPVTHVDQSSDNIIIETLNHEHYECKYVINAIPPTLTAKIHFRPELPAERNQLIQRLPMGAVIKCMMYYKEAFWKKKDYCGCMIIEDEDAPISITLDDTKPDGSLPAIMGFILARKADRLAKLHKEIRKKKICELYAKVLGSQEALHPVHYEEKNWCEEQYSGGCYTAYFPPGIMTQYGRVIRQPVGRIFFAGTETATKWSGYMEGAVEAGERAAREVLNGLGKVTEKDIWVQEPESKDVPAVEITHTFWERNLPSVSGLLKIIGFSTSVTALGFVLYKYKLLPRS
Method in brief: (§1)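 Compounds preincubated 30 min at 37 °C with enzyme in 50 mM sodium phosphate pH 7.4 (final DMSO <1%, 8-point 1:3 dilutions); reaction started with 200 uM Amplex Red, 1 U/mL HRP and substrate (MAO-A 0.5 mM tyramine, MAO-B 1 mM benzylamine, DAO 1 mM putrescine). Resorufin fluorescence (ex 544/em 590 nm) followed over 1-2 h; IC50 from four-parameter logistic fit.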

[2] = biological target: T3, recombinant human MAO-B (monoamine oxidase-B) (Homo sapiens, UniProt P27338); experiment: Activity evaluation on recombinant human MAO-B (Amplex Red/HRP-coupled assay, 1 mM benzylamine substrate); settings: read-out: Inhibitory Activity (IC50, nM) MAO-B
T3 construct: purchased Sigma-Aldrich
T3 sequence (P27338 1-520): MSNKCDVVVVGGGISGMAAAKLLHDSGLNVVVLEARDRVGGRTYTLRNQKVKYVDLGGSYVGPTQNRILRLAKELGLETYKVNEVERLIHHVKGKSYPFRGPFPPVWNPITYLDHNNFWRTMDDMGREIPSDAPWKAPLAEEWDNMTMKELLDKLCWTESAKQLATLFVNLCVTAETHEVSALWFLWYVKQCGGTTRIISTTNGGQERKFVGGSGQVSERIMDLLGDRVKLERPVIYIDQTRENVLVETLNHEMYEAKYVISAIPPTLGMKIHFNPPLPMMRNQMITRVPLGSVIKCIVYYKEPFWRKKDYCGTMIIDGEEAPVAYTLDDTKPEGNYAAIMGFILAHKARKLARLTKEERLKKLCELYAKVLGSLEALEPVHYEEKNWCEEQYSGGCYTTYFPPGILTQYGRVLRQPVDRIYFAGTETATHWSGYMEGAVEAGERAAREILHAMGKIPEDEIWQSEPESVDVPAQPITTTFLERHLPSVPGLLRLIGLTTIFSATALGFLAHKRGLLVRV
Method in brief: as §1

[3] = biological target: T4, recombinant human DAO (diamine oxidase) (Homo sapiens, UniProt P19801); experiment: Activity evaluation on recombinant human DAO (Amplex Red/HRP-coupled assay, 1 mM putrescine substrate); settings: read-out: Inhibitory Activity (IC50, nM) DAO
T4 construct: purchased R&D systems
T4 sequence (P19801 20-751): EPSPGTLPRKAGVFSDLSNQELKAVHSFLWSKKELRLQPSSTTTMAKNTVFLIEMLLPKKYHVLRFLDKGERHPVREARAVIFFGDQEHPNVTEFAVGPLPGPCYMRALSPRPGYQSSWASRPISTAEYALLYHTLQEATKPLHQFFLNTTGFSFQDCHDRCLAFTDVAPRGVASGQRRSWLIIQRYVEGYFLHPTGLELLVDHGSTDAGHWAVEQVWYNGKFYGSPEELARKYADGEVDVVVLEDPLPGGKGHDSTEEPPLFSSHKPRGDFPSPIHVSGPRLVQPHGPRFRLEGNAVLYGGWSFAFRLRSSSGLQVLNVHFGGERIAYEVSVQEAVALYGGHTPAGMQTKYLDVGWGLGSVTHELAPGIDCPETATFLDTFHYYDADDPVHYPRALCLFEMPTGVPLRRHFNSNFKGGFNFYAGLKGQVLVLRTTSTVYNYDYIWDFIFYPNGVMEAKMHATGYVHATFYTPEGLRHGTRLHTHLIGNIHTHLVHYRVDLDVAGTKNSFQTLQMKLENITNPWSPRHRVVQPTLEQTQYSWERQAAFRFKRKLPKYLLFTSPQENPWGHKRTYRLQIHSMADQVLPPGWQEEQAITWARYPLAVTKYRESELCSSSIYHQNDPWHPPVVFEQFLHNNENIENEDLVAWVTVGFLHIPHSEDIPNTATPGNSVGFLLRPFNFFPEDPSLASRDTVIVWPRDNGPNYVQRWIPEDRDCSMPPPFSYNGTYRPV
Method in brief: as §1

[4] = recombinant human VAP-1, 30 min preincubation at 37° C., 1 mM benzylamine
[5] = recombinant human VAP-1, benzylamine substrate

| SMILES | IC50 (recombinant human VAP-1; [4]) | IC50 ([1]; 0.5 mM tyramine) | IC50 ([2]; 1 mM benzylamine) | IC50 ([3]; 1 mM putrescine) | IC50 (recombinant human VAP-1; [5]) | IC50 ([1]; 0.5 mM tyramine substrate) | IC50 ([2]; 1 mM benzylamine substrate) | IC50 ([3]; 1 mM putrescine substrate) |
| --- | --- | --- | --- | --- | --- | --- | --- | --- |
| NCC(Cn1ncn(Cc2ccc(-c3ccc4nonc4c3)s2)c1=O)=C(F)F [Example 129, 2-[2-(aminomethyl)-3,3-difluoro-allyl]-4-[[5-(2,1,3-benzoxadiazol-5-yl)-2-thienyl]methyl]-1,2,4-triazol-3-one Trifluoroacetate] | 0.7 nM | > 100000 nM | 311 nM | 21000 nM |  |  |  |  |
| CCn1cc(-c2cccc(Cn3cnn(CC(CN)=C(F)F)c3=O)c2)cn1 [Example 271, 2-[2-(aminomethyl)-3,3-difluoro-allyl]-4-[[3-(1-ethylpyrazol-4-yl)phenyl]methyl]-1,2,4-triazol-3-one Trifluoroacetate] |  |  |  |  | 2.2 nM | > 100000 nM | 1590 nM | > 100000 nM |
| NCC(Cn1ncn(-c2cnc(Br)cn2)c1=O)=C(F)F [Example 16, 2-[2-(aminomethyl)-3,3-difluoro-allyl]-4-(5-bromopyrazin-2-yl)-1,2,4-triazol-3-one Trifluoroacetate] | 4.6 nM | > 100000 nM | 38000 nM | 1100 nM |  |  |  |  |
| Cc1c(-c2ccc(Cn3cnn(CC(CN)=C(F)F)c3=O)s2)ccc2c1NCCO2 [Example 139, 2-[2-(aminomethyl)-3,3-difluoro-allyl]-4-[[5-(5-methyl-3,4-dihydro-2H-1,4-benzoxazin-6-yl)-2-thienyl]methyl]-1,2,4-triazol-3-one Trifluoroacetate] | 1 nM | 21000 nM | 21000 nM | 73000 nM |  |  |  |  |
| CCn1cc(-c2cccc(-n3cnn(CC(CN)=C(F)F)c3=O)n2)ccc1=O [Example 218, 5-[6-[1-[2-(aminomethyl)-3,3-difluoro-allyl]-5-oxo-1,2,4-triazol-4-yl]-2-pyridyl]-1-ethyl-pyridin-2-one Trifluoroacetate] |  |  |  |  | 0.8 nM | > 100000 nM | > 100000 nM | 130 nM |
| Cc1cc(-c2cccc(N3CCNCC3)c2)cnc1-n1cnn(CC(CN)=C(F)F)c1=O [Example 235, 2-[2-(aminomethyl)-3,3-difluoro-allyl]-4-[3-methyl-5-(3-piperazin-1-ylphenyl)-2-pyridyl]-1,2,4-triazol-3-one Ditrifluoroacetate] |  |  |  |  | 1.4 nM | > 100000 nM | 840 nM | > 100000 nM |
| NCC(Cn1ncn(Cc2sc(-c3ccc(N4CCNCC4)cc3)cc2F)c1=O)=C(F)F [Example 298, 2-[2-(aminomethyl)-3,3-difluoro-allyl]-4-[[3-fluoro-5-(4-piperazin-1-ylphenyl)-2-thienyl]methyl]-1,2,4-triazol-3-one ditrifluoroacetate] |  |  |  |  | 12 nM | > 100000 nM | > 100000 nM | 0.2 nM |
| CCn1cc(-c2cnc(-n3cnn(CC(CN)=C(F)F)c3=O)cn2)cn1 [Example 95, 2-[2-(aminomethyl)-3,3-difluoro-allyl]-4-[5-(1-ethylpyrazol-4-yl)pyrazin-2-yl]-1,2,4-triazol-3-one Trifluoroacetate] | 0.6 nM | > 100000 nM | 1300 nM | 19 nM |  |  |  |  |
| Cc1cc(C#Cc2cnc3c(c2)OCCN3)cnc1-n1cnn(CC(CN)=C(F)F)c1=O [Example 245, 2-[2-(aminomethyl)-3,3-difluoro-allyl]-4-[5-[2-(3,4-dihydro-2H-pyrido[3,2-b][1,4]oxazin-7-yl)ethynyl]-3-methyl-2-pyridyl]-1,2,4-triazol-3-one ditrifluoroacetate] |  |  |  |  | 2.7 nM | > 100000 nM | 15000 nM | 14000 nM |
| NCC(Cn1ncn(-c2ccc(-c3ccc(N4CCNCC4)cc3)c(F)c2)c1=O)=C(F)F [Example 25, 2-[2-(aminomethyl)-3,3-difluoro-allyl]-4-[3-fluoro-4-(4-piperazin-1-ylphenyl)phenyl]-1,2,4-triazol-3-one Ditrifluoroacetate] | 1.7 nM | 6280 nM | > 10000 nM | 1300 nM |  |  |  |  |
| CCn1cc(-c2ccc(CCn3cnn(CC(CN)=C(F)F)c3=O)s2)cn1 [Example 180, 2-[2-(aminomethyl)-3,3-difluoro-allyl]-4-[2-[5-(1-ethylpyrazol-4-yl)-2-thienyl]ethyl]-1,2,4-triazol-3-one Trifluoroacetate] | 0.6 nM | > 100000 nM | 61000 nM | 1900 nM |  |  |  |  |
| NCC(Cn1ncn(Cc2ccc(-c3cnn(Cc4ccccc4)c3)s2)c1=O)=C(F)F [Example 297, 2-[2-(aminomethyl)-3,3-difluoro-allyl]-4-[[5-(1-benzylpyrazol-4-yl)-2-thienyl]methyl]-1,2,4-triazol-3-one Trifluoroacetate] |  |  |  |  | 1.9 nM | > 100000 nM | > 100000 nM | 14800 nM |
| CC(C)n1cc(-c2ccc(Cn3cnn(CC(CN)=C(F)F)c3=O)s2)ccc1=O [Example 123, 5-[5-[[1-[2-(aminomethyl)-3,3-difluoro-allyl]-5-oxo-1,2,4-triazol-4-yl]methyl]-2-thienyl]-1-isopropyl-pyridin-2-one Trifluoroacetate] | 0.9 nM | > 100000 nM | 56000 nM | 59000 nM |  |  |  |  |
